Test results published in PMC5118709, “Identification of Polo-like kinase 1 interaction inhibitors using a novel cell-based assay” (Scientific Reports, 2016).
Values joined by “and” are separate entries in the source; they are usually repeats but may differ in a detail not shown here. Equal entries are not always repeated. “Also recorded” adds a separate entry of the source. Where no end group is shown, it is not given here. [ ]: non-standard residue; d: D form. The star is where a group is joined. FITC = O=C1OC2(c3ccc(O)cc3Oc3cc(O)ccc32)c2ccc(NC(=S)*)cc21; pT = C[C@@H](OP(=O)(O)O)[C@H](N)C(=O)O

Columns and labels:
[1] = reaction with amino-protected amino acids (LC-MS); conditions: room temperature
Procedure: Vinyl sulfones are reactive species that can alkylate substrates as a result of a nucleophilic attack on the distal carbon of the vinyl group. To evaluate the potential of Cpd 161 (vinyl sulfone) to react with proteins, we tested its reaction with nucleophilic amino acid side chains groups. […] To test whether Cpd 161 could react covalently with the PBD, we incubated them together and examined the molecular mass of the protein by SDS-PAGE (Fig. 7). […] Consistent with this idea, the extent of the shift depended on the concentration of Cpd 161 used (Fig. 7B) and also on the incubation time (Fig. 7C).
To a stirred solution of electrophile (0.02 mmol) and amino acid (1- 1.5eq) in DMF (0.3 ml) were added a few drops of a diluted aqueous solution of sodium bicarbonate. The reaction was monitored using an Agilent 6120 Quadrupole LC/MS system (Agilent Technologies). In all cases, the molecular ion of the product was observed.

His-PBD326-603 [2] = molecular target: T1, His-PBD326-603 (Homo sapiens, UniProt P53350); assay: alkylation sites on the PBD by LC-MS/MS
Procedure: Proteins were precipitated using acetone and resuspended in 100 μl. Sample reduction was performed by adding 50 μl of 5 mM TCEP in 50 mM ammonium bicarbonate. Samples were then added 50 μl of chloroacetamide 50 mM with ammonium bicarbonate 50 mM to protect exposed cysteine residues. One microgram of trypsin was added and the digestion was performed for 8 h at 37 °C. […] Each full MS spectrum acquired with a 70,000 resolution was followed by 12 MS/MS spectra, where the 12 most abundant multiply charged ions were selected for MS/MS sequencing. Peptides were identified using Peaks 8.0 (Bioinformatics Solution Inc.) and peptide sequences were blasted against the Human Uniprot database. Tolerance was set at 10 ppm for precursor and 0.01 Da for fragment ions during data processing. For the post-translational modification of proteins, occurrence of carbamidomethylation (C), oxidation (M), deamidation (NQ) was considered as well as addition of TQ (C, K), Poloxin (K, C, H), and vinyl sulfone (C, H, K) when needed.

GST-PBD367-603 of Plk1 = GST-PBD367-603 of Plk1 (Homo sapiens, UniProt P53350); assay: fluorescence polarization assay PBD-phosphopeptide
Text: In this assay, an optimal phosphopeptide for PBD binding is coupled with a FITC fluorophore and its binding to purified recombinant PBD of Plk1 is monitored by the change in polarization of incident light.

His-PBD326-603 [3] = molecular target: T1, His-PBD326-603; assay: covalent reaction with the PBD by SDS-PAGE; design: His-PBD326-603 was expressed in E.coli BL21; made in house; host or cells: E. coli BL21; conditions: 2.5 mM, 3-4 h
Procedure: Vinyl sulfones are reactive species that can alkylate substrates as a result of a nucleophilic attack on the distal carbon of the vinyl group.
Membranes were blocked with TBS-Tween 0.1% containing 5% of dry milk powder, then incubated with anti-Plk1 (F-8; Santa Cruz Biotechnologies Inc.) or with a 6x-His epitope tag antibody (Invitrogen; gift from Gregory Emery). HRP-conjugated goat anti-mouse IgG (Jackson ImmunoResearch Laboratories inc.) was used and TBS-Tween 0.1% was used for the washes before and after the secondary antibody. […] Gels were imaged using a ChemiDoc MP system (BioRad).

HeLa cells = assay: mitotic defect phenotypes by immunofluorescence; format: cell-based; conditions: 10 μM, 7 h
Procedure: HeLa cells were treated with these compounds along with the known PBD inhibitors PPG, TQ, Poloxin and the KD inhibitor BI2536 as controls, and then stained against α-Tubulin, pericentrin (a centrosome marker) and DNA (Fig. 2D). In all cases, there was a marked increase in the frequency of disorganized spindles compared with DMSO-treated control cells. This is expected as Plk1 plays multiple roles in spindle assembly and maintenance. […] Cpd 69, an analog of compound 122, induced a similar phenotype at lower concentrations (data not shown). This phenotype was not seen after treatment with BI2536.
For the mitotic defect phenotypes, 25 200 HeLa cells were plated on poly-L-lysine coated round cover slips in 24-well plates. The day after, cells were treated for 7 hours, and then washed with PHEM buffer at 37 °C before fixation in PHEM buffer containing 4% formaldehyde for 20 minutes at 37 °C. Cells were washed three times with TBS-tween 0.1% and plate was kept overnight at 4 °C. Next steps were followed as previously described except that coverslips were incubated in a dark wet chamber with antibodies. Anti-pericentrin (diluted 1:1000; Abcam), anti-α-tubulin DM1A (diluted 1:500; Sigma-Aldrich), Alexa Fluor 488 anti-rabbit and Texas-Red anti-mouse (diluted 1:200; Invitrogen) were used. Coverslips were mounted on slide using Vectashield media containing DAPI (Vector Laboratories).
Images shown in Fig. 2D were acquired on an AxioImager microscope (Carl Zeiss) with a 100x oil objective (NA 1.4 DICIII) and an AxioCam HRM camera (Carl Zeiss) using AxioVision software (Carl Zeiss).

PBD of Plk1 = PBD of Plk1 (Homo sapiens, UniProt P53350); assay: fluorescence polarization assay PBD-Map peptide; format: binding
Procedure: The FP buffer was composed of 10 mM Tris pH 8.0, 50 mM NaCl, 1 mM EDTA, 20% glycerol and 0.1% NP-40. The peptide (final concentration 10 nM) was always added to the wells of non-binding, black, 384-well plates, 1 hour after the addition of the protein with the buffer (+/− treatment, 10% DMSO). […] EC65s were used to perform the competitive assays with the non-labeled peptides and with the inhibitors. FP Inhibition was calculated with the formula: 100 − [((mPsample − mPfree peptide)\(mPDMSO − mPfree peptide)) × 100]. […] (Map peptide), and corresponding non-labeled peptides are identical but without FITC in N-terminal. […] Inhibition curves were fitted with GraphPad (Prism software).

PBD = system: PBD; design: method as in PMID 19033445; conditions: cited from earlier work
mitosis = conditions: cited from earlier work
Plk1-Map interaction = Plk1-Map interaction (Homo sapiens, UniProt P53350); assay: LUMIER co-immunoprecipitation assay Plk1-Map
Procedure: After cell lysis, GFP-Plk1 was immunoprecipitated and co-purified Map-Luc was measured by luminescence following addition of the luciferase substrate, coelenterazine.
Half a million stably transfected Map205-RLucII/GFP10-Plk1 cells in Tyrode solution were seeded per well in a 96-well plate and allowed to settle for 30 min at 37 °C. […] Plates were then centrifuged at 4 °C at 3000 rpm for 5 minutes to pellet cells. Cells were then lysed with the IP buffer (20 mM Tris pH 7.5, 150 mM NaCl, 2 mM EGTA, 0.5% NP-40, 1 mM DTT, PMSF, aprotinin and leupeptin) and incubated on ice for 20 minutes. Plates were centrifuged again at 4 °C at 3400 rpm for 10 minutes, and the soluble fraction was transferred into a new 96-well plate. Note that 10 μl of this fraction was transferred in white 96-well plates from which the luminescence was read as a measure of the input amount of cell lysate for the co-IP. GFP-Plk1 was immunoprecipitated by adding 0.35 μl of anti-GFP antibody (Invitrogen). Plates were sealed and incubated on a rotator at 4 °C for 30 minutes. Then, 4 μl of pre-washed protein A magnetic beads (Invitrogen) were added to each well. Plates were sealed and incubated at 4 °C for 1h30. The extracts + beads were then transferred in a 96-well PCR plates and beads were washed 3 times with the IP buffer using a magnetic 96-well rack. The fourth wash was done in Tyrode solution, then beads were re-suspended with it and transferred in a white 96-well plate. […] Tyrode was also added to the plates containing the input fraction, then Coelenterazine h was added to the wells, and enhanced luminescence was read as described above.

human GST-PBD_(367-603) = molecular target: T2, human GST-PBD_(367-603) (human, UniProt P53350 367-603); assay: fluorescence polarisation; competition: FITC-phosphopeptide 10 nM and GST-PBD 367-603 at 38 nM (EC65), unlabeled phosphopeptide at increasing concentrations; FP buffer; conditions: both partners purified
T2 construct: also called Polo-Box Domain of Plk1; source: bought: Sigma-Aldrich

[4] = molecular target: T3, Human Plk1 full length protein (human, UniProt P53350 1-603); assay: fluorescence polarisation; FITC-Map peptide with the PBD or full-length Plk1 (Supplementary Fig. S3); compounds tested up to 100 uM; conditions: both partners purified
T3 construct: Polo-like kinase 1 (Plk1), human, full length protein; also called full-length Plk1; whole Plk1; source: bought: Abcam
T3 sequence (P53350 whole entry): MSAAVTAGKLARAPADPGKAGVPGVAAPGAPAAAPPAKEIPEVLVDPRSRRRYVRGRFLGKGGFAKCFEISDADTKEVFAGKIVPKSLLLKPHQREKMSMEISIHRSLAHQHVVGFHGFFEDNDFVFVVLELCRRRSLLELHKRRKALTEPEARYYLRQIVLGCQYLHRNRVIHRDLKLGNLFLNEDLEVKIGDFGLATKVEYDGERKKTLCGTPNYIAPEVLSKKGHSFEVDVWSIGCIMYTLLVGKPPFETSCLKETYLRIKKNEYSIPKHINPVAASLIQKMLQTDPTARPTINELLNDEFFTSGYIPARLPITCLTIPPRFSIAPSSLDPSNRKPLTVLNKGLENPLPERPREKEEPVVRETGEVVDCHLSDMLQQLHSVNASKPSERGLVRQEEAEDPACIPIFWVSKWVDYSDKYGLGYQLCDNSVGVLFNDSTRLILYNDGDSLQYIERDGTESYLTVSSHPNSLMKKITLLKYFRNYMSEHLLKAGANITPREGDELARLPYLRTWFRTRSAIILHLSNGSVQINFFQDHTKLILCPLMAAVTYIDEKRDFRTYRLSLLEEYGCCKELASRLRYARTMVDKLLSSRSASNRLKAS

Chain of GST-PBD367-603 of Plk1 (P53350 367-603): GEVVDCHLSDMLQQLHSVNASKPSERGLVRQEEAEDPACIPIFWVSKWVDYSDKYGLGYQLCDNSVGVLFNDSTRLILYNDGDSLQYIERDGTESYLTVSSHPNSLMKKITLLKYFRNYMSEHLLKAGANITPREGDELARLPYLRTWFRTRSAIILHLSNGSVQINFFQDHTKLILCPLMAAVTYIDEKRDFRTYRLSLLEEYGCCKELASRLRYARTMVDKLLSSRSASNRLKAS
T1 sequence (P53350 326-603): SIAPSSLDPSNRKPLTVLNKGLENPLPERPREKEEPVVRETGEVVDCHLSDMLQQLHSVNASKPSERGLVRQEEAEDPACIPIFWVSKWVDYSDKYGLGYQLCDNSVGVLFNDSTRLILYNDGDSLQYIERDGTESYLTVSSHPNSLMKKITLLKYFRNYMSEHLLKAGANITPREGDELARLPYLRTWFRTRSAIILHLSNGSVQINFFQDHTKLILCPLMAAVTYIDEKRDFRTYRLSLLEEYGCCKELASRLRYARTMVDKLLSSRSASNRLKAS
Chain of Plk1-Map interaction (P53350 whole entry): as the sequence (P53350 whole entry) above
T2 sequence (P53350 367-603): as the sequence (P53350 367-603) above
Chain of PBD of Plk1 (P53350 367-603 limits assumed): as the sequence (P53350 367-603) above

## C=CS(=O)(=O)c1cc(C(F)(F)F)cc(C)n1 [Cpd 161, 2-methyl-4-(trifluoromethyl)-6-(vinylsulfonyl) pyridine]
[1]
  time to completion of reaction with amino-protected cysteine: approximately 10 minutes
  time to completion of reaction with amino-protected lysine: approximately 10 minutes
His-PBD326-603 [2]
  alkylated residues very near the phosphopeptide binding site: His489; also recorded: Lys492
His-PBD326-603 [2]; 2.5 mM TQ, 2.5 mM Cpd 161 or 250 μM Poloxin, 3 hours
  residues of the PBD found alkylated: cysteines, lysines and histidines
GST-PBD367-603 of Plk1; FP - IC50 (μM), Table S3
  IC50: 8.3 ± 2.6 µM
GST-PBD367-603 of Plk1; SAR
  activity in the FP assay: showed the same activity as Cpd 16
His-PBD326-603 [3]
  mobility shift of the PBD in SDS-PAGE: appeared higher in the gel, a few kDa above the protein treated with DMSO alone

## O=c1c(O)cccc2cc(O)c(O)c(O)c12 [PPG, purpurogallin, reference compound]
HeLa cells
  2 > pericentrin foci (percentage of cells): 7 ± 4%
  Disorganized spindles (percentage of cells): 41 ± 6%
PBD of Plk1
  disruption of the PBD-Map interaction in FP: disrupted the PBD-Map interaction
PBD
  concentrations active in vitro: low micromolar concentrations
mitosis
  concentrations impacting mitosis: high micromolar concentrations
Plk1-Map interaction; 10-25 μM, 2 h
  Average-Beads (mean luminescence): 301,042
Plk1-Map interaction; mean divided by maximum mean of the compounds
  Relative Luminescence Unit: 0.351
Plk1-Map interaction; raw data, 10-25 μM, 2 h
  Luminescence on beads, duplicate wells: 290,044 and 312,040
GST-PBD367-603 of Plk1; IC50 in FP, GST-PBD367-603 38 nM, 1 h pre-incubation, FITC-phosphopeptide 10 nM, Fig. 4C
  IC50: 126 µM

## CC1=CC(=O)C(C(C)C)=CC1=O [TQ, Thymoquinone]
HeLa cells
  2 > pericentrin foci (percentage of cells): 33 ± 9%
  Disorganized spindles (percentage of cells): 56 ± 8%
[1]
  time to completion of reaction with amino-protected cysteine: approximately 10 minutes
mitosis
  concentrations required to disrupt mitosis and induce apoptosis: high micromolar concentrations

B1: unlabeled phosphopeptide GPMQS{T}PLNG (peptide)
peptide: GPMQS[pT]PLNG
notes: as m7 but without FITC in N-terminal; also called corresponding unlabeled phosphopeptide; equivalent unlabeled peptide; source: synthetic peptide (Bio Basic inc., >95% pure)
Human GST-PBD_(367-603)
  binding result: binds

B2: FITC-GPMQS{T}PLNG (FITC-labeled PBD-binding phosphopeptide) (peptide)
peptide: {FITC}-GPMQS[pT]PLNG
notes: also called FITC-phosphopeptide; source: synthetic peptide (Bio Basic inc., >95% pure)
Human GST-PBD_(367-603)
  binding result: binds

B3: FITC-GIAVPDEREFDIEADMRPHEL (Map peptide) (peptide)
peptide: {FITC}-GIAVPDEREFDIEADMRPHEL
notes: small peptide derived from Drosophila Map205; also called small peptide derived from Map205 coupled to FITC; source: synthetic peptide (Bio Basic inc., >95% pure)
[4]
  binding result: binds
